# How the values were obtained:
# [1] = system: white blood cells; assay: Immune cell selective uptake (immune selectivity ratio) in blood cell / buffy coat preparations; assay type: cell-based; conditions: fluorescent compounds, FIG. 1
# Procedure: Freshly drawn heparinised blood or buffy coat preparations are used for the determination of immune cell partition ratios. Buffy coat preparations are preferred. These may be obtained from donor blood by simple centrifugation of whole blood (4795 g for 10 minutes). Following centrifugation, plasma is collected from the surface, after which immune cells are expressed from the donor bags along with the erythrocytes lying immediately below the leukocyte layer. This ensures high yields and a sufficient population of erythrocytes for partition. 5 ml of the resulting cell suspension are dispensed into T25 culture flasks. Substrates are added to a final concentration between 1 and 10 μM and the suspensions incubated at 37° C., in a 5% CO2 atmosphere. For analysis of uptake kinetics, samples are withdrawn at 0, 2, 5, 10, 30, 60, 90, 180, or 240 min after substrate addition. For screening purposes, samples are taken at 0 and 120 minutes. […]
# Uptake of fluorescent compounds is monitored using fluorescence microscopy. Excitation and emission wavelengths depend of the fluorescence label in use. […]
# Cell lysates are analysed using a HP 1100 HPLC System (Agilent Technologies, Waldbronn, Germany) with a Kromasil 3.5μ […], 50×2.0 mm column and guard cartridge system (both, Phenomenex, Aschaffenburg, Germany) run at 30° C. […]
# Masses are monitored according to the known or expected M/Z ratios. […]
# [2] = system: E. coli; assay: Antibiotic activity testing (TC50, dilution assay, turbidity); assay type: cell-based, E. coli (DH5α)
# Procedure: The TC50 or MIC procedure for antibiotic sensitivity testing involves an antibiotic dilution assay, which can be performed in microtitre plates. A series of twofold dilutions of each antibiotic are made in the wells, and then all wells are inoculated with a standard amount of the same test organism. After incubation, growth in the presence of the various antibiotics is observed by measuring turbidity.
# Bacteria: B. pumilus and E. coli (DH5α)
# Bacterial cultures are initiated from the plates for 2 to 3 weeks. After this time period bacteria are streaked out on new plates from the backups stored at −80° C. Due to the lack of resistance of the bacteria, new cultures are not to be initiated from an old plate or any liquid cultures derived from old plates.
# Growth medium (GM) (per liter): 10 g Bacto-tryptone, 5 g Bacto-yeast extract, 6 g HEPES (25 mM), 5.4 g NaCl, pH 7.3
# Compound stocks 10 or 100 mM in DMSO stored at −20° C.
# • 1. Grow B. pumilus from an LB agar plate in a flask (max. 10% volume) up to about 50 ml in growth medium (GM) • 2. Dilute overnight suspension 1:10 in GM • 3. Determine OD600 of diluted bacterial suspension • 4. Dilute bacterial suspension in GM to an OD600 of 0.03-0.04. (6 ml/plate) • 5. Add 200 μl GM to the outer wells (Row A, Row H, Column 1, Column 12) • 6. Add 100 μl GM to each well starting from C2, row 3. • 7. […]
# 8.3. […] Determine OD600 on plate reader.
structure (smiles),measurement,setting,value
COc1cc(C)c(/C(=C\C(C)=O)CC(N)C(=O)O)cc1OC (centres unmarked) [Compound 4],uptake rate,[1],rapid
CCC1OC(=O)C(C)C(OC2CC(C)(OC)C(O)C(C)O2)C(C)C(OC2OC(C)CC(NC)C2O)C(C)(O)CC(C)CN(C)C(C)C(O)C1(C)O (centres unmarked) [Compound 96],TC50 in E. coli,[2],28 µM

# From patent publication US8357506B2, “Method of identifying improved conjugates of biologically active compounds” (priority 2002, dated 2013)
